Measurements taken from patent EP4652843A1, “BIOPESTICIDE COMPOSITION, PROCEDURE OF OBTAIN THEREOF, AND METHOD FOR CONTROLLING AND TREATING BROAD SPECTRUM OF PESTS IN PLANTS” (Kimitec Biogroup S.L, priority 2024, dated 2025).
“And” between values parts separate entries of the source, which are not always exact repeats. Equal entries are not always repeated. Marks after values point to notes of the source that are not given here.

Tests used:
Bemisia tabaci = experiment: Contact mortality (Leaf Disc Method), solvent comparison, Bemisia tabaci; details: Group A: individual solvents, diluted at 0.3% (3cc/L) in water without formulation, Abbott's corrected
Method: (§1) The objective of this bioassay is to evaluate the effect of test items on the mortality of insect (Fam Tortricidae and Fam Gelechiidae) and other side pests as target in a short/medium-term (0-24 hours) by topical application. All trials were carried out on whole alive target. Four independent replicates of the whole setup were performed for each target as follow: (Figure 12) first of all, 10g/L agar-agar was prepared (1) and deposited in petri dish according to the target (2), after adding cut leaf disc around 4 cm diameter from healthy bean plants (3), fixing the plant material on the semi solid agar in the petri dish (4). Insect adults (from 3 to 15 according to the target) are setting on surface of leaf disc (5). Biopesticide composition was sprayed 0.1-02 ml per experimental unit (6), a total of 10 replicates for each treatment (biopesticide composition and positive control; commercial products based on anthranilic diamide and emamectin to recommend doses in the label) were used in each experiment and incubated and evaluated after 24 hours (7).
(§2) Insects and mites were considered dead if no movement was apparent after probing with the tip of a fine brush under stereoscopic magnifying glass. Mortality percentage was calculated in treatment and control groups. If the mortality in negative control is above 20% the test was discarded.
(§3) Means of %M were compared using a one-way analysis of variance (ANOVA, p<0.05) and LSD-test as a post hoc test to verify significant differences between single treatments using Statgraphics Centurion XVII software. When nonnormality in the data was detected, an additional Kruskal-Wallis test was conducted, and Box-and-Whisker Plot (Median Notch) was presented.
(§4) The different compositions were tested by trials that were carried out on different relevant insect pests and acari including: Tuta absoluta, Bemisia tabaci, Myzus persicae, Frankliniella occidentalis and Tetranychus urticae. The bioassay type used was contact mortality (Leaf Disc Method) described in the example 4.
(§5) The main treatments included in the comparison of efficacy are: Group A: Individual solvents: Benzyl alcohol, ethanol, isopropanol, and water were applied directly (purity as in the label) diluted at 0.3% (3cc/L) in water without formulation. Group B: Vegetable matrix extracts were extracted with different solvents such as benzyl alcohol, ethanol, isopropanol, and water in a blend of inert ingredients as follows: […]

Myzus persicae = experiment: Contact mortality (Leaf Disc Method), solvent comparison, Myzus persicae; details: Group A: individual solvents, diluted at 0.3% (3cc/L) in water without formulation, Abbott's corrected
Method: as §1, §2, §3, §4, §5

[1] = tested on: Frankliniella occidentalis; experiment: Contact mortality (Leaf Disc Method), solvent comparison, Frankliniella occidentalis; details: Group A: individual solvents, diluted at 0.3% (3cc/L) in water without formulation, Abbott's corrected
Method: as §1, §2, §3, §4, §5

Tuta absoluta [2] = experiment: Contact mortality (Leaf Disc Method), solvent comparison, Tuta absoluta; details: Group A: individual solvents, diluted at 0.3% (3cc/L) in water without formulation, Abbott's corrected
Method: as §1, §2, §3, §4, §5

Tetranychus urticae = experiment: Contact mortality (Leaf Disc Method), solvent comparison, Tetranychus urticae; details: Group A: individual solvents, diluted at 0.3% (3cc/L) in water without formulation, Abbott's corrected
Method: as §1, §2, §3, §4, §5

[3] = cited from earlier work
Grapholita molesta = experiment: Field trial against Grapholita molesta in Prunus persica; format: in vivo; details: 0,2cc/L, % efficacy (abbott) on fruit damage incidence, one value per plot (1-3)
Method: (§6) The biopesticide composition (table 2) was tested in field trials against Grapholita molesta in Prunus persica […] to validate efficacy, parametrised by % efficacy (abbott) on fruit damage incidence. 3 plots were treated, each plot has 4-6 trees with a sample size of 100-300 fruits/ plot. The trees were treated with biopesticide composition and positive control; commercial products based on chlorantraniliprole for recommend doses in the label in 2 applications at interval of 10 days. Table 9. % Efficacy against Grapholita molesta in field trials.

Cydia pomonella = experiment: Field trial against Cydia pomonella in Pyrus communis and Malus domestica; format: in vivo; details: 0,2cc/L, one value per plot (1-3)
Method: as §6
The same test was repeated in Pyrus communis and Malus domestica to validate efficacy against Cydia pomonella. Table 10. % Efficacy against Cydia pomonella in field trials

[4] = tested on: lepidoptera larvae (Grapholita molesta); experiment: Contact mortality (Leaf Disc Method), Grapholita molesta larvae; format: in vivo; details: dose 1.5 g/L; 24H after application; Abbott's corrected; mean of 4 repetitions
Method: (§7) All trials were carried out on whole alive target.
(§8) Mortality percentage was calculated in treatment and control groups.

[5] = tested on: lepidoptera larvae (Grapholita molesta); experiment: Antifeedant effects: settling inhibition, Grapholita molesta larvae; format: in vivo; details: dose 1.5 g/L; 24H after application
Method: The concept of antifeedant as a substance that acts on insect behaviour involves feeding reduction (FR) and settling inhibition (SI). In some cases, settling inhibition is considered as indirect repellent effect. […] Feeding reduction index (%FR) or settling inhibition index (%SI) was calculated according to the following formula: % FR or SI = (1−((T)/(C)))∗100 [formula] where: T= Settling of treated plants; C= Setting of control plants. Table 3. In vitro efficacy against lepidoptera larvae (Grapholita molesta)

[6] = tested on: lepidoptera adults (Grapholita molesta); experiment: Contact mortality (Leaf Disc Method), Grapholita molesta adults; format: in vivo; details: dose 1.5 g/L; 24H after application; Abbott's corrected
Method: as §7, §8

[7] = tested on: lepidoptera adults (Cydia pomonella); experiment: Contact mortality (Leaf Disc Method), Cydia pomonella adults; format: in vivo; details: dose 1.5 g/L; 24H after application; Abbott's corrected
Method: as §7, §8

[8] = tested on: lepidoptera larvae (Tuta absoluta); experiment: Contact mortality (Leaf Disc Method), Tuta absoluta larvae; format: in vivo; details: dose 0.5 kg/ha; 24H after application; Abbott's corrected; mean of 3 repetitions
Method: as §7, §8

[9] = tested on: lepidoptera larvae (Tuta absoluta); experiment: Antifeedant effects: feeding reduction (choice assays), Tuta absoluta larvae; format: in vivo; details: dose 0.5 kg/ha, surface covered by mines, 24H after application
Tuta absoluta [10] = experiment: Field trial against Tuta absoluta in Solanum lycopersicum; format: in vivo; details: 1,5 gr/L, % efficacy (Henderson & Tilton) on damaged leaflets, one value per plot (1-3)
Method: The biopesticide composition was tested in field trials against Tuta absoluta in Solanum lycopersicum to validate efficacy, parametrised by % efficacy (Henderson & Tilton) on damaged leaflets (50 random leaflets/Plot). 3 plots were treated, each plot has 10m^2. The plants were treated with biopesticide composition and positive control; commercial products based on emamectin for recommend doses in the label in 3 applications at interval of 7 days. Table 11. % Efficacy against Tuta absoluta in field trials

Molecule: OCc1ccccc1 [Benzyl alcohol (BnOH), Benzyl alcohol]
- Contact mortality (%M) Bemisia tabaci (Bemisia tabaci): 49.8 ± 6.2 ^a %
- Contact mortality (%M) Myzus persicae (Myzus persicae): 19.8 ± 6.2 ^a %
- Contact mortality (%M) Frankliniella occidentalis [1]: 12.5 ± 7.8 ^a %
- Contact mortality (%M) Tuta absoluta (Tuta absoluta [2]): 29.6 ± 5.7 ^a %
- Contact mortality (%M) Tetranychus urticae (Tetranychus urticae): 33.4 ± 4.1 ^a %
- solubility in water [3]: 4 g/100 mL

Molecule: CNC(=O)c1cc(Cl)cc(C)c1NC(=O)c1cc(Br)nn1-c1ncccc1Cl [Chlorantraniliprole]
- % Efficacy against Grapholita molesta in field trials (Grapholita molesta; 14 days after the last application): 58% and 63% and 42%
- % Efficacy against Grapholita molesta in field trials (Grapholita molesta; 21 days after the last application): 62% and 51% and 61%
- % Efficacy against Cydia pomonella in field trials (Cydia pomonella; 10 days after the last application): 59% and 62% and 75%
- % Efficacy against Cydia pomonella in field trials (Cydia pomonella; 20 days after the last application): 68% and 62% and 73%

Molecule: CCO [Ethanol (EtOH), Ethanol]
- Contact mortality (%M) Bemisia tabaci (Bemisia tabaci): 23.5 ± 8.4 ^b %
- Contact mortality (%M) Myzus persicae (Myzus persicae): 16.7 ± 9.1 ^a %
- Contact mortality (%M) Frankliniella occidentalis [1]: 0.0 ± 0.0 ^b %
- Contact mortality (%M) Tuta absoluta (Tuta absoluta [2]): 0.0 ± 0.0 ^c %
- Contact mortality (%M) Tetranychus urticae (Tetranychus urticae): 0.0 ± 0.0 ^b %

Molecule: CC(C)O [Isopropanol (IPN), Isopropanol]
- Contact mortality (%M) Bemisia tabaci (Bemisia tabaci): 0.0 ± 0.0 ^c %
- Contact mortality (%M) Myzus persicae (Myzus persicae): 0.0 ± 0.0 ^b %
- Contact mortality (%M) Frankliniella occidentalis [1]: 0.0 ± 0.0 ^b %
- Contact mortality (%M) Tuta absoluta (Tuta absoluta [2]): 11.4 ± 7.2 ^b %
- Contact mortality (%M) Tetranychus urticae (Tetranychus urticae): 0.0 ± 0.0 ^b %

Molecule: O [Water]
- Contact mortality (%M) Bemisia tabaci (Bemisia tabaci; 1440 min): 0.0 ± 0.0 ^c %
- Contact mortality (%M) Myzus persicae (Myzus persicae; 1440 min): 0.0 ± 0.0 ^b %
- Contact mortality (%M) Frankliniella occidentalis ([1]; 1440 min): 0.0 ± 0.0 ^b %
- Contact mortality (%M) Tuta absoluta (Tuta absoluta [2]; 1440 min): 0.0 ± 0.0 ^c %
- Contact mortality (%M) Tetranychus urticae (Tetranychus urticae; 1440 min): 0.0 ± 0.0 ^b %

Molecule: Emamectin
- Contact mortality (%M) [4]: 100.0 ± 0.0 ^(a) %
- Settling inhibition (%SI) [5]: 36.0 ± 5.8%
- Contact mortality (%M) [6]: 88.9 ± 2.0 ^(a) %
- Contact mortality (%M) [7]: 94.5 ± 1.9 ^(a) %
- Contact mortality in-leaf (%M) [8]: 80.3 ± 8.7 ^(a) %
- Contact mortality out-leaf (%M) [8]: 65.3 ± 3.8 ^(ab) %
- Feeding reduction (%FR) [9]: 59.1 ± 0.8 %
- % Efficacy against Tuta absoluta in field trials (Tuta absoluta [10]; 7 days after 1st application): 62% and 43% and 71%
- % Efficacy against Tuta absoluta in field trials (Tuta absoluta [10]; 7 days after 2nd application): 53% and 58%
- % Efficacy against Tuta absoluta in field trials (Tuta absoluta [10]; 7 days after 3rd application): 67% and 61% and 55%
